Assay results reported in patent publication US10307413B2, “Tetrahydro- and dihydro-isoquinoline PRMT5 inhibitors and uses thereof” (Epizyme, Inc., priority 2013, dated 2019).
Read-outs that look alike come from different tables or passages of the source.

Assays:
[1] = target: PRMT5/MEP50 (Homo sapiens (Human), UniProt O14744); assay: PRMT5 Biochemical Assay (PRMT5/MEP50 enzyme assay on peptide substrate, 3H-SAM Flashplate)
Procedure, shortened: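 Radiometric methylation of a biotin-tagged H4(1-15) peptide by human PRMT5/MEP50 from baculovirus/Sf9, with ³H-SAM incorporation read on streptavidin Flashplates. Buffer: Bicine pH 7.6, TCEP, BSG, Tween20; compound preincubated 30 min at 25 °C; stopped with 600 µM final unlabeled SAM. DMSO and SAH controls; IC50 from fitted % inhibition.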

[2] = tested on: Z-138 cell line; assay: Z-138 Proliferation Assay (Cell Titer Glo, 5 days); format: cell-based; conditions: Homo sapiens, read-out: Proliferation EC50
Procedure, shortened: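 Viability via CellTiter-Glo luminescence (ATP) after 5-day incubation at 37 °C, 5% CO2. Compounds tested in triplicate, nine 3-fold steps, highest final concentration 20 μM in 0.2% DMSO; 50% inhibitory concentration by 4-parameter fit of normalized curves.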

[3] = tested on: symmetric di-methyl arginine in Z-138 cells; assay: Z-138 Methylation Assay (In Cell Western for symmetric di-methyl arginine and DNA content); format: cell-based; conditions: Homo sapiens, read-out: ICW EC50
Procedure, shortened: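 In-cell western: symmetric di-methyl arginine signal ratioed to DRAQ5 DNA content after 96 h compound exposure of Z-138 cells seeded at 50,000 cells/mL.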

[4] = 120 h, Z-138 cells, 5 days, Cell Titer Glo

Sequence of PRMT5/MEP50 (O14744 other isoform, or with tags, fused parts or gaps): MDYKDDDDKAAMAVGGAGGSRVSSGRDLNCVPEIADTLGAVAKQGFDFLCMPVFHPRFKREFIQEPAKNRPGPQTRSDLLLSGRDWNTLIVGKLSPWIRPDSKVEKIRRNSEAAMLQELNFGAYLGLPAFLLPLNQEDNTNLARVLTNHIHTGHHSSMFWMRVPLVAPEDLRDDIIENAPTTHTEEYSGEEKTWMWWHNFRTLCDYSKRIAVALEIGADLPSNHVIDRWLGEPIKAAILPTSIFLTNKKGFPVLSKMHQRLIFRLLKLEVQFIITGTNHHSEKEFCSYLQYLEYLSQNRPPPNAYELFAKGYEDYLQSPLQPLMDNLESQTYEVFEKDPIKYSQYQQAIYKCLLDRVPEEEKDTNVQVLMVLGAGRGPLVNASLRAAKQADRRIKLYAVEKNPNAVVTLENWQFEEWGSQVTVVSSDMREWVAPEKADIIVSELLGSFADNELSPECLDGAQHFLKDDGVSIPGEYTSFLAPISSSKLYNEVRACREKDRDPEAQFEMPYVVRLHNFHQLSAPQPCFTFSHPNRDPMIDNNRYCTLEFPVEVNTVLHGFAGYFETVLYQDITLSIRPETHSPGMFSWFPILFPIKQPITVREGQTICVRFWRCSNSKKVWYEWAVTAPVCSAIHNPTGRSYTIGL
Sequence of PRMT5/MEP50 (Q9BQA1 other isoform, or with tags, fused parts or gaps partner): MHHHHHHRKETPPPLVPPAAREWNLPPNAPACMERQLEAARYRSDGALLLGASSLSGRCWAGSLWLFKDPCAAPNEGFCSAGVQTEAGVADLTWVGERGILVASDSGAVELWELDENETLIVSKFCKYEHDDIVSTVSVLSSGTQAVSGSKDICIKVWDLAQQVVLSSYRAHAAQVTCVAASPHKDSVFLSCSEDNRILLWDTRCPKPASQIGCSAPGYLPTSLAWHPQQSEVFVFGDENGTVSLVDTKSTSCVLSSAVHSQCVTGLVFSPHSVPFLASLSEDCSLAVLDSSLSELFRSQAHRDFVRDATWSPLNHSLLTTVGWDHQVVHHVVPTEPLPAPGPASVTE

IC50 ([1]; PRMT5 biochemical assay) | EC50 ([3]; In Cell Western methylation) | IC50 [1] | EC50 [3] | SMILES | EC50 [2, 4] | EC50 ([2]; 120 h, Z-138 cells, 5 days) | EC50 ([2]; Z-138, 120 h)
101 to 1000 nM | > 1000 nM |  |  | O=C(NC[C@H](O)CN1CCc2ccccc2C1)C1=CC2=N[C@@H](CO)CN2C=N1 [Compound 634] | > 5000 nM |  | 
< 100 nM | < 100 nM |  |  | O=C(NC[C@H](O)CN1CCc2ccccc2C1)c1cnnc(NC2COC2)c1 [Compound 545] | 1000 to 10000 nM |  | 
< 100 nM | < 100 nM |  |  | CC(=O)N1CC[C@H](Nc2cc(C(=O)NC[C@H](O)CN3CCc4ccccc4C3)ncn2)C1 [Compound 582] | 1000 to 10000 nM |  | 
< 100 nM | < 100 nM |  |  | CSCCNc1cc(C(=O)NC[C@H](O)CN2CCc3ccccc3C2)ncn1 [Compound 554] | 101 to 1000 nM |  | 
< 100 nM | < 100 nM |  |  | CO[C@H]1CC[C@@H](N(C)c2cc(C(=O)NC[C@H](O)CN3CCc4ccccc4C3)ncn2)CC1 [Compound 618] | 1000 to 10000 nM |  | 
< 100 nM | < 100 nM |  |  | CC(=O)N1CCC(Nc2cc(C(=O)NC[C@H](O)CN3CCc4ccccc4C3C)ccn2)CC1 (stereo partly drawn) [Compound 694] | 101 to 1000 nM |  | 
< 100 nM | < 100 nM |  |  | O=C(NC[C@H](O)CN1CCc2ccccc2C1)c1cc(N[C@H]2C[C@@H](C(=O)N3CCCCC3)C2)ncn1 [Compound 519] | 101 to 1000 nM |  | 
< 100 nM | < 100 nM |  |  | CC(=O)N1CCC(Nc2cc(C(=O)NC(C)C(O)CN3CCc4ccccc4C3)ncn2)CC1 (stereo not drawn) [Compound 536] | 101 to 1000 nM |  | 
< 100 nM | < 100 nM |  |  | CC(=O)N1CC(Nc2cc(C(=O)NC[C@H](O)CN3CCc4cc(C)ccc4C3)ncn2)C1 [Compound 674] | 1000 to 10000 nM |  | 
< 100 nM | < 100 nM |  |  | CC(=O)N(C)[C@H]1CC[C@H](Nc2cc(C(=O)NC[C@H](O)CN3CCc4ccccc4C3)ncn2)CC1 [Compound 671] | < 100 nM |  | 
1000 to 10000 nM | > 1000 nM |  |  | CC(C(O)CNC(=O)c1cc(NC2COC2)ncn1)N1CCc2ccccc2C1 (stereo not drawn) [Compound 607] | > 5000 nM |  | 
< 100 nM | < 100 nM |  |  | O=C(NC[C@H](O)CN1CCc2ccccc2C1)c1cc(NC2CCN(C(=O)C3CC3)CC2)ccn1 [Compound 638] | < 100 nM |  | 
< 100 nM | < 100 nM |  |  | CNC(=O)CN1CCC(Nc2cc(C(=O)NC[C@H](O)CN3CCc4ccccc4C3)ncn2)CC1 [Compound 533] | < 100 nM |  | 
< 100 nM | < 100 nM |  |  | CC(=O)N1CCC(Nc2cc(C(=O)NC[C@H](O)CN3CCc4ccccc4C3)nc(N(C)C)c2)CC1 [Compound 685] | 101 to 1000 nM |  | 
< 100 nM | < 100 nM |  |  | CC(=O)N1CCN(c2nc(NC3COC3)cc(C(=O)NC[C@H](O)CN3CCc4ccccc4C3)n2)CC1 [Compound 497] | < 100 nM |  | 
< 100 nM | < 100 nM |  |  | COC(CNC(=O)c1ccnc(NC2CCN(C(C)=O)CC2)c1)CN1CCc2ccccc2C1 (stereo not drawn) [Compound 691] | 1000 to 10000 nM |  | 
< 100 nM | < 100 nM |  |  | CC(=O)N1CCC(Nc2cc(C(=O)NC[C@H](O)CN3CCc4ccc(C)cc4C3)ccn2)CC1 [Compound 669] | 101 to 1000 nM |  | 
< 100 nM | < 100 nM |  |  | CN(C)c1nc(NC2COC2)cc(C(=O)NC[C@H](O)CN2CCc3ccccc3C2)n1 [Compound 494] | 101 to 1000 nM |  | 
< 100 nM | < 100 nM |  |  | O=C(NC[C@H](O)CN1CCc2ccccc2C1)c1cnnc(NC2CCOCC2)c1 [Compound 693] | 101 to 1000 nM |  | 
< 100 nM | < 100 nM |  |  | CN(C)C(=O)[C@H]1CC[C@H](Nc2cc(C(=O)NC[C@H](O)CN3CCc4ccccc4C3)ncn2)CC1 [Compound 587] | < 100 nM |  | 
< 100 nM | < 100 nM |  |  | CNC(=O)[C@H]1CC[C@@H](Nc2cc(C(=O)NC[C@H](O)CN3CCc4ccccc4C3)ncn2)CC1 [Compound 597] | 101 to 1000 nM |  | 
< 100 nM | < 100 nM |  |  | CCN(C)[C@H]1CC[C@H](Nc2cc(C(=O)NC[C@H](O)CN3CCc4ccccc4C3)ncn2)CC1 [Compound 662] | 101 to 1000 nM |  | 
< 100 nM | < 100 nM |  |  | COCC(=O)N1CC(Nc2cc(C(=O)NC[C@H](O)CN3CCc4ccccc4C3)ncn2)C1 [Compound 531] | 101 to 1000 nM |  | 

Continued, compound first:

SMILES | IC50 ([1]; PRMT5 biochemical assay) | EC50 ([3]; In Cell Western methylation) | IC50 [1] | EC50 [3] | EC50 [2, 4] | EC50 ([2]; 120 h, Z-138 cells, 5 days) | EC50 ([2]; Z-138, 120 h)
CC1(C)CC(Nc2cc(C(=O)NC[C@H](O)CN3CCc4ccccc4C3)ncn2)CC(C)(C)N1 [Compound 430] | < 100 nM | 101 to 1000 nM |  |  | 1000 to 10000 nM |  | 
Cc1cc(Nc2cc(C(=O)NC[C@H](O)CN3CCc4ccccc4C3)ccn2)n[nH]1 [Compound 433] | < 100 nM | < 100 nM |  |  | 1000 to 10000 nM |  | 
CN(C)CCOc1ccc(C(=O)NC[C@H](O)CN2CCc3ccccc3C2)cc1 [Compound 384] |  |  | < 100 nM | < 100 nM |  | 1000 to 10000 nM | 
CC(C)CC(=O)N1CCC(Nc2cc(C(=O)NC[C@H](O)CN3CCc4ccccc4C3)ccn2)CC1 [Compound 471] | < 100 nM | < 100 nM |  |  | < 100 nM |  | 
O=C(NC[C@H](O)CN1CCc2ccccc2C1)c1ccc(OCCCN2CCCC2)cc1 [Compound 372] |  |  | < 100 nM | < 100 nM |  | 101 to 1000 nM | 
CC(C)(C)C(=O)N1CCC(Nc2cc(C(=O)NC[C@H](O)CN3CCc4ccccc4C3)ncn2)CC1 [Compound 410] | < 100 nM | < 100 nM |  |  | < 100 nM |  | 
CN(C)CCOc1ccc2cc(C(=O)NC[C@H](O)CN3CCc4ccccc4C3)ccc2c1 [Compound 370] |  |  | < 100 nM | < 100 nM |  | 1000 to 10000 nM | 
CNCCOc1cccc(C(=O)NCC(O)CN2CCc3ccccc3C2)c1 (stereo not drawn) [Compound 39] |  |  | 101 to 1000 nM | 1000 to 10000 nM |  | > 20000 nM | 
CN(C)[C@H]1C[C@H](Nc2cc(C(=O)NC[C@H](O)CN3CCc4ccccc4C3)ncn2)C1 [Compound 376] |  |  | < 100 nM | < 100 nM |  | 1000 to 10000 nM | 
O=C(NC[C@H](O)CN1CCc2ccccc2C1)c1cc(NC2CCC2)nc(N2CCCCC2)c1 [Compound 375] |  |  | < 100 nM | < 100 nM |  | 101 to 1000 nM | 
CC(=O)Nc1cccc(C(=O)NCC(O)CN2CCc3ccccc3C2)c1 (stereo not drawn) [Compound 26] |  |  | 101 to 1000 nM | 101 to 1000 nM |  | 10000 to 50000 nM | 
CCN1CCC(Oc2ccc(C(=O)NC[C@H](O)CN3CCc4ccccc4C3)cc2)CC1 [Compound 346] |  |  | < 100 nM | < 100 nM |  | 101 to 1000 nM | 
CN1CCN(c2nc(NC3COC3)cc(C(=O)NC[C@H](O)CN3CCc4ccccc4C3)n2)CC1 [Compound 394] |  |  | < 100 nM | < 100 nM |  | < 100 nM | 
CC(=O)N1CC(Oc2cc(C(=O)NC[C@H](O)CN3CCc4ccccc4C3)ncn2)C1 [Compound 475] | < 100 nM | < 100 nM |  |  | 101 to 1000 nM |  | 
O=C(NC[C@H](O)CN1CCc2ccccc2C1)c1cc(N[C@@H]2CCOC2)ncn1 [Compound 365] |  |  | < 100 nM | < 100 nM |  | 101 to 1000 nM | 
CCSCCN1CCC(Nc2cc(C(=O)NC[C@H](O)CN3CCc4ccccc4C3)ncn2)CC1 [Compound 570] | < 100 nM | < 100 nM |  |  |  |  | 1000 to 10000 nM
Cc1cnc(NC2CCN(C)C2)cc1C(=O)NC[C@H](O)CN1CCc2ccccc2C1 (stereo partly drawn) [Compound 401] | < 100 nM | 101 to 1000 nM |  |  | 1000 to 10000 nM |  | 
CC(=O)N1CCN(c2cc(C(=O)NC[C@H](O)CN3CCc4ccccc4C3)cc(NC3CCC3)n2)CC1 [Compound 398] | < 100 nM | < 100 nM |  |  | < 100 nM |  | 
Cc1ncc(NC2CCNC2)cc1C(=O)NC[C@H](O)CN1CCc2ccccc2C1 (stereo partly drawn) [Compound 310] |  |  | < 100 nM | < 100 nM |  | 101 to 1000 nM | 
O=C(NC[C@H](O)CN1CCc2ccccc2C1)c1cc(OC2CNC2)ncn1 [Compound 439] | < 100 nM | 101 to 1000 nM |  |  | 10000 to 50000 nM |  | 
CC(C)N1CCN(c2cc(C(=O)NC[C@H](O)CN3CCc4ccccc4C3)cc(NC3CCC3)n2)CC1 [Compound 397] |  |  | < 100 nM | < 100 nM |  | < 100 nM | 
O=C(NC[C@H](O)CN1CCc2ccccc2C1)c1cc(N[C@H]2CCOC2)ncn1 [Compound 351] |  |  | < 100 nM | < 100 nM |  | 101 to 1000 nM | 
CC(=O)N1CCC(Nc2cc(C(=O)NCC(F)CN3CCc4ccccc4C3)ccn2)CC1 (stereo not drawn) [Compound 698] | < 100 nM | < 100 nM |  |  |  |  | 1000 to 10000 nM
COCCNCCOc1ccc2cc(C(=O)NC[C@H](O)CN3CCc4ccccc4C3)ccc2c1 [Compound 369] |  |  | < 100 nM | < 100 nM |  | 1000 to 10000 nM | 
CC(=O)N1CC(Nc2cc(C(=O)NC[C@H](O)CN3CCc4ccccc4C3)nc(N3CCOCC3)n2)C1 [Compound 443] | < 100 nM | < 100 nM |  |  | < 100 nM |  | 
O=C(NC[C@H](O)CN1CCc2ccccc2C1)c1cc(Nc2cc[nH]n2)ncn1 [Compound 431] | < 100 nM | < 100 nM |  |  | 1000 to 10000 nM |  | 
CCCC(=O)N1CCC(Nc2cc(C(=O)NC[C@H](O)CN3CCc4ccccc4C3)ccn2)CC1 [Compound 468] | < 100 nM | < 100 nM |  |  | < 100 nM |  | 
O=C(NC[C@H](O)CN1CCc2ccccc2C1)c1ccnc(Nc2cccnc2)c1 [Compound 343] |  |  | < 100 nM | < 100 nM |  | < 100 nM | 
